{"source": "patent US7910751B2", "about": "“Heterocyclidene acetamide derivative” (Mochida Pharmaceutical Co., Ltd., priority 2005, dated 2011)", "data": [{"molecular_target": "T1, human TRPV1 (Homo sapiens, UniProt Q8NER1)", "T1 construct": "expressed in transfected cells; host or cells: CHO-K1", "T1 sequence (Q8NER1 whole entry)": "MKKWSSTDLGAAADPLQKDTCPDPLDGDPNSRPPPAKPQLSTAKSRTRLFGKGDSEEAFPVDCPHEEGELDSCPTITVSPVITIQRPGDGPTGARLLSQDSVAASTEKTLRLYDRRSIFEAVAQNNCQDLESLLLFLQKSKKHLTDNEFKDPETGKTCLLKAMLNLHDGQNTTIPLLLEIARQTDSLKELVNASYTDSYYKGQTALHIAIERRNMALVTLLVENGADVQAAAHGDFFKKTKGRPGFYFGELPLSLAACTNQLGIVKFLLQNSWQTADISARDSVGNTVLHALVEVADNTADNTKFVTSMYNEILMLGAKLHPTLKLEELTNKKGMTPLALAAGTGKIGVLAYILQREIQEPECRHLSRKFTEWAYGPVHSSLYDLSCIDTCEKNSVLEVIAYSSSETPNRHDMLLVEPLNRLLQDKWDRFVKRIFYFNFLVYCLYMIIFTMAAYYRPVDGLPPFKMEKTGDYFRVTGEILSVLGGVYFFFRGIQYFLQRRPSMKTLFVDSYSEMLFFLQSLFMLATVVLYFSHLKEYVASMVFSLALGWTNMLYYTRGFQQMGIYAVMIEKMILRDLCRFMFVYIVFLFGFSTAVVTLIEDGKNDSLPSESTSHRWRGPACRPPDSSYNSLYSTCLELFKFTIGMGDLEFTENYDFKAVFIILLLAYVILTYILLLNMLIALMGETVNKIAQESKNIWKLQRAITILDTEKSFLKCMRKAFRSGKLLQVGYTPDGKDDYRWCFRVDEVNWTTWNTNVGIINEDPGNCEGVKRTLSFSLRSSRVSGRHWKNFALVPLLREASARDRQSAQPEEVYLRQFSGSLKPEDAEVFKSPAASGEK", "assay": "Measurement of capsaicin-induced Ca influx in human TRPV1 transformed CHO cell line using FDSS-6000", "assay_type": "cell-based", "conditions": "concentration at which the capsaicin concentration-reaction curve is shifted two times to the right, human TRPV1 transformed CHO cells", "from_the_text": "[Measurement of Capsaicin-Induced Ca Influx in Human TRPV1 Transformed CHO Cell Line]\n(1) Establishment of Human TRPV1 Transformed CHO Cell Line\nHuman vanilloid receptor 1 (hTRPV1) cDNA was cloned from a human brain. The cloned hTRPV1 cDNA was incorporated in a pCAGGS vector. The gene of the vector was introduced to a CHO-K1 cell line, thus performing transformation. Clones obtained by limiting dilution were stimulated with capsaicin. Clones with a high responsiveness were selected using an increase in the Ca concentration as an indicator. The selected clones were used for the following experiment.\n(2) Measurement of Ca Influx Using FDSS-6000\nThe human TRPV1 transformed CHO cells were seeded in a 96-well plate (with black walls and transparent bottoms, manufactured by Greiner) at a density of 40,000 cells per well. The cells were cultured at 37° C. in 5% CO2 for one night. A loading solution of FLIPR Calcium 3 assay kit (manufactured by Molecular Devices Corporation) containing 2.5 mmol/L of probenecid was then added to each of the wells in the same amount as the culture medium, and the cells were cultured at 37° C. for 60 minutes. After the cells were stimulated with capsaicin (1 nmol/L to 1 μmol/L), the change in the Ca concentration in the cells was measured using FDSS-6000 (λex: 480 nm, λem: 540 nm, manufactured by Hamamatsu Photonics K.K.) for three minutes. The integrated values of the increase rate of the Ca concentration in the cells were calculated for a group treated with the compounds of the present invention and a group treated with a medium, thus allowing capsaicin concentration-reaction curves to be obtained. A concentration (A2 value) of each of the compounds of the present invention, at which the capsaicin concentration-reaction curve obtained when the cells were treated with the medium was shifted two times to the right side, was calculated. The inhibiting effects of the test compounds were compared using this value as an indicator.\nIn the case where a compound of the present invention is an agonist, when the cells are treated with the compound of the present invention prior to the capsaicin stimulation, the Ca influx is observed. In Table 1, compounds of the present invention having an A2 value of less than 100 nM are represented by A, and compounds having an A2 value of 100 nM or more are represented by B. When the A2 values of the compounds of the present invention were measured by the above-described method, the compounds have an intensity of 1 μM or less.", "values": [{"smiles": "O=C1CCc2cccc(NC(=O)/C=C3\\CCCOc4cc(C(F)(F)F)ccc43)c2C1", "note": "[Example 61, (E)-2-(8-trifluoromethyl-3,4-dihydrobenzo[b]oxepin-5(2H)-ylidene)-N-(7-oxo-5,6,7,8-tetrahydronaphthalen-1-yl)acetamide]", "A2 VALUE": "A (compounds of the present invention having an A2 value of less than 100 nM are represented by A)"}, {"smiles": "O=C(/C=C1\\CCCOc2cc(C(F)(F)F)ccc21)Nc1ccccc1CCO", "note": "[Example 60, (E)-2-(8-trifluoromethyl-3,4-dihydrobenzo[b]oxepin-5(2H)-ylidene)-N-((2-hydroxyethyl)phenyl-1-yl)acetamide]", "A2 VALUE": "A (compounds of the present invention having an A2 value of less than 100 nM are represented by A)"}, {"smiles": "O=C(/C=C1\\CCN(C(=O)CC(F)(F)F)c2cc(C(F)(F)F)ccc21)Nc1cccc2c1CC(O)CC2", "note": "(stereo not shown) [Example 92, (E)-2-(1-(3,3,3-trifluoropropanoyl)-7-trifluoromethyl-2,3-dihydroquinolin-4(1H)-ylidene)-N-(7-hydroxy-5,6,7,8-tetrahydronaphthalen-1-yl)acetamide]", "A2 VALUE": "A (compounds of the present invention having an A2 value of less than 100 nM are represented by A)"}, {"smiles": "O=C(/C=C1\\CCNc2cc(C(F)(F)F)ccc21)NC1CCc2cccnc2C1", "note": "(stereo not shown) [Example 49, (E)-2-(7-trifluoromethyl-2,3-dihydroquinolin-4(1H)-ylidene)-N-(5,6,7,8-tetrahydroquinolin-7-yl)acetamide]", "A2 VALUE": "B (compounds having an A2 value of 100 nM or more are represented by B)"}, {"smiles": "O=C(/C=C1\\CCCOc2cc(C(F)(F)F)ccc21)Nc1ccc(Cl)c(C(F)(F)F)c1", "note": "[Example 136, (E)-2-(8-trifluoromethyl-3,4-dihydrobenzo[b]oxepin-5(2H)-ylidene)-N-(4-chloro-3-(trifluoromethyl)phenyl)acetamide]", "A2 VALUE": "A (compounds of the present invention having an A2 value of less than 100 nM are represented by A)"}, {"smiles": "O=CN1CC/C(=C\\C(=O)Nc2cccc3c2CC(O)CC3)c2ccc(C(F)(F)F)cc21", "note": "(stereo not shown) [Example 114, (E)-2-(1-formyl-7-trifluoromethyl-2,3-dihydroquinolin-4(1H)-ylidene)-N-(7-hydroxy-5,6,7,8-tetrahydronaphthalen-1-yl)acetamide]", "A2 VALUE": "A (compounds of the present invention having an A2 value of less than 100 nM are represented by A)"}, {"smiles": "O=C(/C=C1\\CCCOc2cc(C(F)(F)F)ccc21)NCc1ccc(-c2csnn2)cc1", "note": "[Example 37, (E)-2-(8-trifluoromethyl-3,4-dihydrobenzo[b]oxepin-5(2H)-ylidene)-N-(4-(1,2,3-thiadiazolo-4-yl)phenylmethyl)acetamide]", "A2 VALUE": "B (compounds having an A2 value of 100 nM or more are represented by B)"}, {"smiles": "O=C(/C=C1\\CCCOc2cc(C(F)(F)F)ccc21)Nc1ccc2c(c1)OC(CO)CO2", "note": "(stereo not shown) [Example 165, (E)-2-(8-trifluoromethyl-3,4-dihydrobenzo[b]oxepin-5(2H)-ylidene)-N-(3-hydroxymethyl-2,3-dihydro-1,4-benzodioxin-6-yl)acetamide]", "A2 VALUE": "A (compounds of the present invention having an A2 value of less than 100 nM are represented by A)"}, {"smiles": "O=C(/C=C1\\CCOc2cc(C(F)(F)F)ccc21)Nc1ccc2sc(CO)nc2c1", "note": "[Example 216, (E)-2-(7-trifluoromethyl-chroman-4-ylidene)-N-(2-hydroxymethyl-1,3-benzothiazolo-5-yl)acetamide]", "A2 VALUE": "A (compounds of the present invention having an A2 value of less than 100 nM are represented by A)"}, {"smiles": "O=C(/C=C1\\CCCOc2cc(C(F)(F)F)ccc21)Nc1ccc2ccn(CCO)c2c1", "note": "[Example 151, (E)-2-(8-trifluoromethyl-3,4-dihydrobenzo[b]oxepin-5(2H)-ylidene)-N-(1-(2-hydroxyethyl)indol-6-yl)acetamide]", "A2 VALUE": "A (compounds of the present invention having an A2 value of less than 100 nM are represented by A)"}, {"smiles": "O=C(/C=C1\\CCCOc2cc(C(F)(F)F)c(F)cc21)Nc1cccc2c1CC(O)CC2", "note": "(stereo not shown) [Example 248, (E)-2-(7-fluoro-8-trifluoromethyl-3,4-dihydrobenzo[b]oxepin-5-(2H)-ylidene)-N-(7-hydroxy-5,6,7,8-tetrahydronaphthalen-1-yl)acetamide]", "A2 VALUE": "A (compounds of the present invention having an A2 value of less than 100 nM are represented by A)"}, {"smiles": "O=C(/C=C1\\CCN(c2ccc(Cl)cc2)c2cc(C(F)(F)F)ccc21)NC1CCc2cccnc2C1", "note": "(stereo not shown) [Example 56, (E)-2-(1-(4-chlorophenyl)-7-trifluoromethyl-2,3-dihydro-4(1H)-ylidene)-N-(5,6,7,8-tetrahydroquinolin-7-yl)acetamide]", "A2 VALUE": "A (compounds of the present invention having an A2 value of less than 100 nM are represented by A)"}, {"smiles": "O=C(/C=C1\\CCCOc2cc(C(F)(F)F)ccc21)NC(c1ccccc1)c1ccccn1", "note": "(stereo not shown) [Example 31, (E)-2-(8-trifluoromethyl-3,4-dihydrobenzo[b]oxepin-5(2H)-ylidene)-N-(phenyl(pyridin-2-yl)methyl)acetamide]", "A2 VALUE": "B (compounds having an A2 value of 100 nM or more are represented by B)"}, {"smiles": "CN1CCCc2ccc(NC(=O)/C=C3\\CCCOc4cc(C(F)(F)F)ccc43)cc21", "note": "[Example 17, (E)-2-(8-trifluoromethyl-3,4-dihydrobenzo[b]oxepin-5(2H)-ylidene)-N-(1,2,3,4-tetrahydro-1-methylquinolin-7-yl)acetamide]", "A2 VALUE": "A (compounds of the present invention having an A2 value of less than 100 nM are represented by A)"}, {"smiles": "CCC(F)(F)CC(=O)N1CC/C(=C\\C(=O)Nc2cccc3c2CC(O)CC3)c2ccc(C(F)(F)F)cc21", "note": "(stereo not shown) [Example 117, (E)-2-(1-(3,3-difluoropentanoyl)-7-trifluoromethyl-2,3-dihydroquinolin-4(1H)-ylidene)-N-(7-hydroxy-5,6,7,8-tetrahydronaphthalen-1-yl)acetamide]", "A2 VALUE": "A (compounds of the present invention having an A2 value of less than 100 nM are represented by A)"}, {"smiles": "CCC(F)(F)C(=O)N1CC/C(=C\\C(=O)Nc2cccc3c2CC(O)CN3)c2ccc(C(F)(F)F)cc21", "note": "(stereo not shown) [Example 184, (E)-2-(1-(2,2-difluorobutanoyl)-7-trifluoromethyl-2,3-dihydroquinolin-4(1H)-ylidene)-N-(3-hydroxy-1,2,3,4-tetrahydroquinolin-5-yl)acetamide]", "A2 VALUE": "A (compounds of the present invention having an A2 value of less than 100 nM are represented by A)"}, {"smiles": "O=C(/C=C1\\CCCOc2cc(C(F)(F)F)ccc21)NCCc1cccc2c1CC(O)CC2", "note": "(stereo not shown) [Example 226, (E)-2-(8-trifluoromethyl-3,4-dihydrobenzo[b]oxepin-5(2H)-ylidene)-N-(2-(7-hydroxy-5,6,7,8-tetrahydronaphthalen-1-yl)ethyl)acetamide]", "A2 VALUE": "A (compounds of the present invention having an A2 value of less than 100 nM are represented by A)"}, {"smiles": "O=C(/C=C1\\CCOc2cc(C(F)(F)F)ccc21)NC1CCc2cccnc2C1", "note": "(stereo not shown) [Example 6, (E)-2-(7-trifluoromethyl-chroman-4-ylidene)-N-(5,6,7,8-tetrahydroquinolin-7-yl)acetamide]", "A2 VALUE": "A (compounds of the present invention having an A2 value of less than 100 nM are represented by A)"}, {"smiles": "O=C(/C=C1\\CCCOc2cc(C(F)(F)F)ccc21)Nc1ccc2cc[nH]c2c1", "note": "[Example 137, (E)-2-(8-trifluoromethyl-3,4-dihydrobenzo[b]oxepin-5(2H)-ylidene)-N-(indol-6-yl)acetamide]", "A2 VALUE": "A (compounds of the present invention having an A2 value of less than 100 nM are represented by A)"}, {"smiles": "CCCC(C)C(=O)N1CC/C(=C\\C(=O)Nc2ccc3cccnc3c2)c2ccc(C(F)(F)F)cc21", "note": "(stereo not shown) [Example 80, (E)-2-(1-(2-methylpentanoyl)-7-trifluoromethyl-2,3-dihydroquinolin-4(1H)-ylidene)-N-(quinolin-7-yl)acetamide]", "A2 VALUE": "A (compounds of the present invention having an A2 value of less than 100 nM are represented by A)"}, {"smiles": "O=C(/C=C1\\CCCOc2cc(C(F)(F)F)ccc21)Nc1ccc2c(c1)N(CCO)CCO2", "note": "[Example 233]", "A2 VALUE": "A (compounds of the present invention having an A2 value of less than 100 nM are represented by A)"}, {"smiles": "CC1(C)C/C(=C\\C(=O)Nc2cccc3c2CC(O)CN3)c2ccc(C(F)(F)F)cc2O1", "note": "(stereo not shown) [Example 245, (E)-2-(7-trifluoromethyl-2,2-dimethylchroman-4-ylidene)-N-(3-hydroxy-1,2,3,4-tetrahydroquinolin-5-yl)acetamide]", "A2 VALUE": "A (compounds of the present invention having an A2 value of less than 100 nM are represented by A)"}]}]}
